Data: US10487094B1, “Bergenin thiodipropionic acid ester with antioxidant activity and a method of improving the antioxidant property of ganoderma lucidum spore oil using the same” (SHAANXI UNIVERSITY OF SCIENCE AND TECHNOLOGY, priority 2018, dated 2019)

What was measured:
[1] = DPPH radical scavenging activity of sample and control solutions; assay type: biochemical; conditions: for Scavenging activity: 0.2 mmol/L DPPH, 30 min, 517 nm, n = 3
Description: In the DPPH molecule, due to the presence of multiple electron-withdrawing —NO2 and large π bonds of the benzene ring, nitrogen free radical is stabilized. Its methanol solution is purple and has a maximum absorption peak at 517 nm. After the addition of an antioxidant, DPPH captures an electron to be paired with the free electron, and the purple fades and turns into a yellow substance. The absorption at 517 nm disappears, and the degree of fading is quantitatively related to the number of electrons it captures. Based on this principle, a spectrophotometer is used to detect the change of the absorbance of the DPPH radical and the sample solution, and the ability of the sample to provide hydrogen atoms and scavenge free radicals can be measured.
Preparation of DPPH Solution: Measuring Exact Amount of 1,1-diphenyl-2-picryl hydrazyl (DPPH) and dissolving in methanol to prepare a 0.2 mmol/L DPPH Solution, Stored at 0° C. in Dark
Preparation of sample solutions: Vitamin C (positive control), bergenin thiodipripionic acid ester (sample), bergenin (control), thiodipropionic acid (control), mixture of bergenin and thiodipropionic acid (control). The sample solution was serially diluted with acetonitrile, and four groups of controls were separately dissolved in a test tube with a certain amount of methanol to prepare the same concentration gradient as the sample. Four corresponding groups of control solutions were prepared in the same way.
2 mL of the sample solution (Table 1: B), 2 mL 0.2 mmol/L DPPH solution was added, the mixture was mixed and reacted at room temperature in dark for 30 minutes, and methanol was then added to adjust final volume. The absorbance Ai was measured at 517 nm. 2 mL control solution and 2 mL methanol were mixed, and the absorbance Aj was measured. 2 mL DPPH solution and 2 mL methanol were mixed, and the absorbance A0 was measured.
2 mL of the control solutions (Table 1: C, D, E), 2 mL 0.2 mmol/L DPPH solution was added, the mixture was mixed and reacted at room temperature in dark for 30 minutes, and methanol was then added to adjust final volume. The absorbance Ai was measured at 517 nm. 2 mL control solution and 2 mL methanol were mixed, and the absorbance Aj was measured. 2 mL DPPH solution and 2 mL methanol were mixed, and the absorbance A0 was measured. The scavenging activity of the sample solution and control solutions is calculated according to the following calculation formula. Scavenging activity (%)=[1−(Ai−Aj)/Ao]*100%

[2] = DPPH radical scavenging activity of Ganoderma lucidum spore oil with and without bergenin thiodipripionic acid ester; assay type: biochemical; conditions: added at 0.2%, 0.4%, 0.6%

SMILES | Scavenging activity ([1]; 0.04 mg/ml) | Scavenging activity ([1]; 0.08 mg/ml) | Scavenging activity ([1]; 0.16 mg/ml) | Scavenging activity ([1]; 0.83 mg/ml) | Scavenging activity ([1]; 1.66 mg/ml) | Scavenging activity ([1]; 8.28 mg/ml) | Scavenging activity ([1]; 16.56 mg/ml) | Scavenging activity ([1]; 24.84 mg/ml) | Scavenging activity ([1]; 33.12 mg/ml) | scavenging ability compared with bergenin (C), thiodipropionic acid (D) and their 2:1 mixture (E) ([1]; at the same concentration) | effect on antioxidant capacity of Ganoderma lucidum spore oil [2]
COc1c(O)cc2c(c1O)C1OC(COC(=O)CCSCCC(=O)OCC3OC4c5c(cc(O)c(OC)c5O)C(=O)OC4C(O)C3O)C(O)C(O)C1OC2=O (centres unmarked) [B, bis((3,4,8,10-tetrahydroxy-9-methoxy-6-oxo-2,3,4,4a,6,10b-hexahydropyrano[3,2-c]isochromen-2-yl)methyl) 3,3′-thiodipropionate] | 28.01% | 37.78% | 51.33% | 60.22% | 76.33% | 82.56% | 95.67% | 96.22% | 96.22% | significantly better | improves the antioxidant capacity of Ganoderma lucidum spore oil
COc1c(O)cc2c(c1O)[C@@H]1O[C@H](CO)[C@@H](O)[C@H](O)[C@H]1OC2=O [C, Bergenin] | 8.63% | 12.25% | 19.80% | 25.59% | 41.86% | 59.12% | 94.78% | 94.87% | 95.18% | – | –
O=C(O)CCSCCC(=O)O [D, Thiodipropionic acid] | 1.96% | 8.73% | 9.07% | 9.18% | 9.41% | 10.56% | 11.83% | 13.09% | 14.47% | – | –
O=C1O[C@H]([C@@H](O)CO)C(O)=C1O [Vc, Vitamin C] | 94.90% | 94.90% | 95.03% | 95.03% | 98.67% | 98.92% | 99.00% | 99.00% | 99.00% | – | –
